Molecular target: T1, HSD17B13 enzyme (Homo sapiens, UniProt Q7Z5P4)
T1 construct: His; made in house; host or cells: E. coli
T1 sequence (Q7Z5P4 20-300): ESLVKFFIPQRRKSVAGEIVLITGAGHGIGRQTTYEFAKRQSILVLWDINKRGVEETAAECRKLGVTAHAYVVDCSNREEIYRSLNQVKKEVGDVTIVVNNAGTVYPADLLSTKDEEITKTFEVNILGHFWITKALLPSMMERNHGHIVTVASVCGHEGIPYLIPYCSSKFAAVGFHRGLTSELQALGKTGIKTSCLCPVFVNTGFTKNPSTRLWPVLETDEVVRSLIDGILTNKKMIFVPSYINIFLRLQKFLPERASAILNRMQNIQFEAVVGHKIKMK
Assay: NADH detection assay (fluorescence based LTB3 assay) for HSD17B13 activity
Format: biochemical
Conditions: substrate 25 μM LTB3, 3 mM NAD+, 125 nM HSD17B13 enzyme, 1 hour at 26.5° C.
Experimental: Example A: NADH Detection Assay for Evaluation of HSD17ß13 Activity and Identification of Inhibitors
The fluorescence based Leukotriene B3 (LTB3) assay monitors the fluorescence of NADH, which is generated from NAD+ during the dehydrogenation of the substrate LTB3. The reactions were performed in a 384-well plates (Greiner; #655076) in a 20 μl reaction volume containing the following reagents (final concentrations): 25 μM LTB3 (Cayman; #20109); 3 mM NAD+ (Sigma; #N0623); 125 nM HSD17B13 enzyme (in-house; E. coli expressed His-tagged, purified, soluble protein); […] potassium phosphate buffer, pH 7.4; and 1% DMSO. Reactions were initiated by co-addition of NAD+ and enzyme, and monitored for 1 hour at 26.5° C. Generation of NADH was measured as the fluorescence signal (Excitation at 340 nm and Emission at 445 nm) at 1 hour minus the baseline fluorescence at t=0. Fluorescence signals in the absence of LTB3 (negative control values), were subtracted from all values so that the results reflected substrate-dependent production of NADH. NADH standards were included to allow the conversion of relative fluorescence units into rates of enzyme activity. Enzyme activity in the presence of test compounds was expressed as a percentage of the uninhibited enzyme activity, and plotted versus inhibitor concentration. Non-linear regression was performed using a four-parameter logistic model and GraphPad Prism software (GraphPad Software, La Jolla, CA). Ten concentrations of inhibitor were tested (in the range of 30 μM-2.5 nM), and two independent assessments were performed at each concentration.

| IC50 [µM] | SMILES |
| --- | --- |
| ≤ 5 | O=S(=O)(Nc1ccccc1)c1cccc(-c2cccc(Oc3ccc(F)c(O)c3)n2)c1 [Example 45, 3-(6-(4-fluoro-3-hydroxyphenoxy)pyridin-2-yl)-N-phenylbenzene sulfonamide] |
| ≤ 5 | CC(=O)N1CCOc2cc(-c3cccc(Oc4ccc(F)c(O)c4)n3)ccc21 [Example 46, 1-{7-[6-(4-fluoro-3-hydroxyphenoxy)pyridin-2-yl]-3,4-dihydro-2H-1,4-benzoxazin-4-yl}ethan-1-one] |
| ≤ 5 | Nc1nc2cc(-c3cccc(Oc4ccc(F)c(O)c4)n3)ccc2s1 [Example 47, 5-((6-(2-aminobenzo[d]thiazol-5-yl)pyridin-2-yl)oxy)-2-fluorophenol] |
| > 30 | O=S(=O)(c1cccc(-c2cccc(Oc3ccc(F)c(O)c3)n2)c1)N1CCNCC1 [Example 48, 2-fluoro-5-((6-(3-(piperazin-1-ylsulfonyl)phenyl)pyridin-2-yl)oxy) phenol] |
| 5 to 10 | NS(=O)(=O)c1cccc(-c2cccc(Oc3ccc(F)c(O)c3)n2)c1 [Example 49, 3-[6-(4-fluoro-3-hydroxyphenoxy)pyridin-2-yl]benzene-1-sulfonamide] |
| ≤ 5 | Oc1cc(Oc2cccc(-c3ccc4scnc4c3)n2)ccc1F [Example 50, 5-{[6-(1,3-benzothiazol-5-yl)pyridin-2-yl]oxy}-2-fluorophenol] |
| > 30 | O=C1COc2cc(-c3cccc(Oc4ccc(F)c(O)c4)n3)ccc2N1 [Example 51, 7-(6-(4-fluoro-3-hydroxyphenoxy)pyridin-2-yl)-2H-benzo[b][1,4]oxazin-3(4H)-one] |
| > 30 | COc1cccc(-c2cccc(Oc3ccc(F)c(C(F)F)c3)n2)c1F [Example 52, 2-[3-(difluoromethyl)-4-fluorophenoxy]-6-(2-fluoro-3-methoxyphenyl) pyridine] |
| ≤ 5 | CN1C(=O)COc2cc(-c3cccc(Oc4ccc(F)c(O)c4)n3)ccc21 [Example 53, 7-(6-(4-fluoro-3-hydroxyphenoxy)pyridin-2-yl)-4-methyl-2H-benzo[b][1,4]oxazin-3(4H)-one] |
| ≤ 5 | CNc1cccc(-c2cccc(Oc3ccc(F)c(O)c3)n2)c1 [Example 54, 2-fluoro-5-({6-[3-(methylamino)phenyl]pyridin-2-yl}oxy)phenol] |
| 5 to 10 | O=S(=O)(c1ccc(F)c(O)c1)c1cccc(-c2cccc(O)c2F)n1 [Example 55, 2-fluoro-3-[6-(4-fluoro-3-hydroxybenzenesulfonyl)pyridin-2-yl]phenol] |
| > 30 | Oc1cccc(-c2cccc(Oc3ccc4c(c3)NCCO4)n2)c1F [Example 56, 3-[6-(3,4-dihydro-2H-1,4-benzoxazin-6-yloxy)pyridin-2-yl]-2-fluorophenol] |
| > 30 | CS(=O)(=O)Nc1cc(Oc2cccc(-c3cccc(O)c3F)n2)ccc1F [Example 57, N-(2-fluoro-5-{[6-(2-fluoro-3-hydroxyphenyl)pyridin-2-yl]oxy}phenyl)methane-sulfonamide] |
| ≤ 5 | O=c1[nH]c2ccc(-c3cccc(Oc4ccc(F)c(O)c4)n3)cc2[nH]1 [Example 58, 5-(6-(4-fluoro-3-hydroxyphenoxy)pyridin-2-yl)-1,3-dihydro-2H-benzo[d]imidazol-2-one] |
| ≤ 5 | Oc1cc(Oc2cccc(-c3ccc4c(c3)NCCO4)n2)ccc1F [Example 59, 5-((6-(3,4-dihydro-2H-benzo[b][1,4]oxazin-6-yl)pyridin-2-yl)oxy)-2-fluorophenol] |
| > 30 | COc1cc(Oc2cccc(-c3ccc4c(c3)NS(=O)(=O)C4)n2)ccc1F [Example 60, 6-(6-(4-fluoro-3-methoxyphenoxy)pyridin-2-yl)-1,3-dihydrobenzo[c]isothiazole 2,2-dioxide] |
| > 30 | CC(=O)Nc1nc2cc(-c3cccc(Oc4ccc(F)c(O)c4)n3)ccc2s1 [Example 61, N-(5-(6-(4-fluoro-3-hydroxyphenoxy)pyridin-2-yl)benzo[d]thiazol-2-yl) acetamide] |
| > 30 | N#Cc1ccc(Oc2ccc(F)c(O)c2)nc1N1CCOCC1 [Example 62, 6-(4-fluoro-3-hydroxyphenoxy)-2-(morpholin-4-yl)pyridine-3-carbonitrile] |
| 10 to 30 | O=C(NC1CC1)c1cccc(-c2cccc(Oc3ccc(F)c(O)c3)n2)c1 [Example 63, N-cyclopropyl-3-(6-(4-fluoro-3-hydroxyphenoxy)pyridin-2-yl)benzamide] |
| ≤ 5 | Oc1cc(Oc2cccc(-c3ccc(OC(F)(F)F)c(Cl)c3)n2)ccc1F [Example 66, 5-((6-(3-chloro-4-(trifluoromethoxy)phenyl)pyridin-2-yl)oxy)-2-fluorophenol] |

| IC50 [µM] | SMILES |
| --- | --- |
| ≤ 5 | Oc1cc(Oc2cccc(-c3ccc4c(c3)OCO4)n2)ccc1F [Example 67, 5-((6-(benzo[d][1,3]dioxol-5-yl)pyridin-2-yl)oxy)-2-fluorophenol] |
| > 30 | O=C(O)c1cccc(-c2cccc(Oc3ccc(F)c(O)c3)n2)c1 [Example 68, 3-(6-(4-fluoro-3-hydroxyphenoxy)pyridin-2-yl)benzoic acid] |
| 10 to 30 | CNC(=O)c1cc(Oc2ccc(F)c(O)c2)nc(-c2cccc(O)c2F)c1 [Example 69, 2-(4-fluoro-3-hydroxyphenoxy)-6-(2-fluoro-3-hydroxyphenyl)-N-methylpyridine-4-carboxamide] |
| > 30 | CNC(=O)c1cc(Oc2ccc(F)c(OC)c2)nc(-c2cccc(O)c2F)c1 [Example 70, 2-(2-fluoro-3-hydroxyphenyl)-6-(4-fluoro-3-methoxyphenoxy)-N-methylpyridine-4-carboxamide] |
| > 30 | Oc1cc(Oc2cccc(N3CCOCC3)n2)ccc1F [Example 72, 2-fluoro-5-{[6-(morpholin-4-yl)pyridin-2-yl]oxy}phenol] |
| > 30 | O=c1ccc(-c2cccc(Oc3ccc(F)c(O)c3)n2)cn1C(F)F [Example 73, 1′-(difluoromethyl)-6-(4-fluoro-3-hydroxyphenoxy)-[2,3′-bipyridin]-6′(1′H)-one] |
| > 30 | COc1cccc(F)c1-c1cccc(Oc2ccc(F)c(O)c2)n1 [Example 74, 2-fluoro-5-((6-(2-fluoro-6-methoxyphenyl)pyridin-2-yl)oxy)phenol] |
| > 30 | CS(=O)(=O)c1cccc(-c2cccc(Oc3ccc(F)c(O)c3)n2)c1 [Example 75, 2-fluoro-5-((6-(3-(methylsulfonyl)phenyl)pyridin-2-yl)oxy)phenol] |
| 10 to 30 | NS(=O)(=O)c1ccc(-c2cccc(Oc3ccc(F)c(O)c3)n2)cc1 [Example 76, 4-(6-(4-fluoro-3-hydroxyphenoxy)pyridin-2-yl)benzene sulfonamide] |
| 10 to 30 | CS(=O)(=O)c1ccc(-c2cccc(Oc3ccc(F)c(O)c3)n2)cc1 [Example 77, 2-fluoro-5-((6-(4-(methylsulfonyl)phenyl)pyridin-2-yl)oxy)phenol] |
| 5 to 10 | Oc1cc(Oc2cccc(-c3c(F)cccc3F)n2)ccc1F [Example 78, 5-((6-(2,6-difluorophenyl)pyridin-2-yl)oxy)-2-fluorophenol] |
| ≤ 5 | CC(=O)Nc1cccc(-c2cccc(Oc3ccc(F)c(O)c3)n2)c1 [Example 79, N-(3-(6-(4-fluoro-3-hydroxyphenoxy)pyridin-2-yl)phenyl)acetamide] |
| ≤ 5 | CNC(=O)c1ccc(-c2cccc(Oc3ccc(F)c(O)c3)n2)cc1 [Example 80, 4-(6-(4-fluoro-3-hydroxyphenoxy)pyridin-2-yl)-N-methylbenzamide] |
| ≤ 5 | CNC(=O)c1cccc(-c2cccc(Oc3ccc(F)c(O)c3)n2)c1 [Example 81, 3-(6-(4-fluoro-3-hydroxyphenoxy)pyridin-2-yl)-N-methylbenzamide] |
| ≤ 5 | Oc1cc(Oc2cccc(-c3ccc(Cl)cc3)n2)ccc1F [Example 82, 5-{[6-(4-chlorophenyl)pyridin-2-yl]oxy}-2-fluorophenol] |
| ≤ 5 | Oc1cc(Oc2cccc(-c3ccccc3Cl)n2)ccc1F [Example 83, 5-{[6-(2-chlorophenyl)pyridin-2-yl]oxy}-2-fluorophenol] |
| 5 to 10 | Oc1cc(Oc2cccc(-c3ccc(F)cc3F)n2)ccc1F [Example 84, 5-{[6-(2,4-difluorophenyl)pyridin-2-yl]oxy}-2-fluorophenol] |
| 5 to 10 | Oc1cc(Oc2cccc(-c3ccc(F)c(Cl)c3)n2)ccc1F [Example 85, 5-{[6-(3-chloro-4-fluorophenyl)pyridin-2-yl]oxy}-2-fluorophenol] |
| ≤ 5 | Oc1cc(Oc2cccc(-c3cccc(Cl)c3F)n2)ccc1F [Example 86, 5-{[6-(3-chloro-2-fluorophenyl)pyridin-2-yl]oxy}-2-fluorophenol] |
| ≤ 5 | COc1ccc(-c2cccc(Oc3ccc(F)c(O)c3)n2)c(F)c1 [Example 87, 2-fluoro-5-{[6-(2-fluoro-4-methoxyphenyl)pyridin-2-yl]oxy}phenol] |
